Experimental data published in patent publication US7217726B2, “Antibacterial agents” (Orchid Chemicals & Pharmaceuticals Limited, priority 2002, dated 2007).
≈ marks a conversion by molar mass, not a printed value.

How the values were obtained:
E. faecalis ATCC 51299 = test: Agar Dilution Method MIC, E. faecalis ATCC 51299; format: cell-based; conditions: Enterococcus faecalis, ATCC51299, Mueller Hinton Agar, 35° Celsius, 20 hours, read-out: Minimum Inhibitory Concentration (MIC in μg/ml)
Experimental: (§1) Briefly, the compounds of invention were weighed, dissolved in Dimethyl Sulfoxide, serially diluted in the same solvent and then incorporated into molten Mueller Hinton Agar in a petridish before solidification, with each petridish containing a different concentration of a compound.
(§2) The Bacterial Inoculum was prepared by touching the tops of 3 to 5 well isolated bacterial colonies with the same morphological appearance from an 18 hour old culture with an inoculating loop, transfering the growth to a tube containing 5 ml of normal saline and adjusting the turbidity of the saline suspension to 0.5 Macfarland Turbidity Standard equivalent to a bacterial population of 1.5×10^8 colony forming units (CFU) per millilitre of suspension.
(§3) The bacterial inoculum prepared in the above manner was inoculated onto petri dishes containing Mueller Hinton Agar which had earlier been incorporated with different dilutions of the compounds of invention by a Multipoint Inoculator with each inoculum spot containing approximately 1×10^4 colony forming units (CFU) of bacteria.
(§4) The inoculated petridishes were incubated at 35° Celsius in an ambient atmosphere for 20 hours. Petridishes containing different concentrations of Vancomycin and Oxacillin and inoculated with Staphylococcus aureus, Coagulase Negative Staphylococci and Enterococci were incubated for 24 hours.

S. epidermidis MRO 02046 = test: Agar Dilution Method MIC, S. epidermidis MRO 02046; format: cell-based; conditions: Staphylococcus epidermidis, MRO02046, Mueller Hinton Agar, 35° Celsius, 20 hours, read-out: Minimum Inhibitory Concentration (MIC in μg/ml)
Experimental: as §1, §2, §3, §4

S. aureus MRO 00048 = test: Agar Dilution Method MIC, S. aureus MRO 00048; format: cell-based; conditions: Staphylococcus aureus, MRO00048, Mueller Hinton Agar, 35° Celsius, 20 hours, read-out: Minimum Inhibitory Concentration (MIC in μg/ml)
Experimental: as §1, §2, §3, §4

E. faecalis ATCC 29212 = test: Agar Dilution Method MIC, E. faecalis ATCC 29212; format: cell-based; conditions: Enterococcus faecalis, ATCC29212, Mueller Hinton Agar, 35° Celsius, 20 hours, read-out: Minimum Inhibitory Concentration (MIC in μg/ml)
Experimental: as §1, §2, §3, §4

S. aureus ATCC 43300 = test: Agar Dilution Method MIC, S. aureus ATCC 43300; format: cell-based; conditions: Staphylococcus aureus, ATCC43300, Mueller Hinton Agar, 35° Celsius, 20 hours, read-out: Minimum Inhibitory Concentration (MIC in μg/ml)
Experimental: as §1, §2, §3, §4

S. aureus MRO 00055 = test: Agar Dilution Method MIC, S. aureus MRO 00055; format: cell-based; conditions: Staphylococcus aureus, MRO00055, Mueller Hinton Agar, 35° Celsius, 20 hours, read-out: Minimum Inhibitory Concentration (MIC in μg/ml)
Experimental: as §1, §2, §3, §4

S. aureus MRO 00013 = test: Agar Dilution Method MIC, S. aureus MRO 00013; format: cell-based; conditions: Staphylococcus aureus, MRO00013, Mueller Hinton Agar, 35° Celsius, 20 hours, read-out: Minimum Inhibitory Concentration (MIC in μg/ml)
Experimental: as §1, §2, §3, §4

[1] = tested on: M. catarrhalis ATCC 43628; test: Agar Dilution Method MIC, M. catarrhalis ATCC 43628; format: cell-based, Morexella catarrhalis; conditions: Moraxella catarrhalis, ATCC43628, Mueller Hinton Agar, 35° Celsius, 20 hours, read-out: Minimum Inhibitory Concentration (MIC in μg/ml)
Experimental: as §1, §2, §3, §4

[2] = tested on: M. catarrhalis ATCC 43627; test: Agar Dilution Method MIC, M. catarrhalis ATCC 43627; format: cell-based, Morexella catarrhalis; conditions: Moraxella catarrhalis, ATCC43627, Mueller Hinton Agar, 35° Celsius, 20 hours, read-out: Minimum Inhibitory Concentration (MIC in μg/ml)
Experimental: as §1, §2, §3, §4

S. aureus MRO 00003 = test: Agar Dilution Method MIC, S. aureus MRO 00003; format: cell-based; conditions: Staphylococcus aureus, MRO00003, Mueller Hinton Agar, 35° Celsius, 20 hours, read-out: Minimum Inhibitory Concentration (MIC in μg/ml)
Experimental: as §1, §2, §3, §4

S. aureus MRO 00001 = test: Agar Dilution Method MIC, S. aureus MRO 00001; format: cell-based; conditions: Staphylococcus aureus, MRO00001, Mueller Hinton Agar, 35° Celsius, 20 hours, read-out: Minimum Inhibitory Concentration (MIC in μg/ml)
Experimental: as §1, §2, §3, §4

S. aureus MRO 00059 = test: Agar Dilution Method MIC, S. aureus MRO 00059; format: cell-based; conditions: Staphylococcus aureus, MRO00059, Mueller Hinton Agar, 35° Celsius, 20 hours, read-out: Minimum Inhibitory Concentration (MIC in μg/ml)
Experimental: as §1, §2, §3, §4

S. aureus MRO 00030 = test: Agar Dilution Method MIC, S. aureus MRO 00030; format: cell-based; conditions: Staphylococcus aureus, MRO00030, Mueller Hinton Agar, 35° Celsius, 20 hours, read-out: Minimum Inhibitory Concentration (MIC in μg/ml)
Experimental: as §1, §2, §3, §4

S. aureus ATCC 29213 = test: Agar Dilution Method MIC, S. aureus ATCC 29213; format: cell-based; conditions: Staphylococcus aureus, ATCC29213, Mueller Hinton Agar, 35° Celsius, 20 hours, read-out: Minimum Inhibitory Concentration (MIC in μg/ml)
Experimental: as §1, §2, §3, §4

[3] = tested on: M. catarrhalis ATCC 43617; test: Agar Dilution Method MIC, M. catarrhalis ATCC 43617; format: cell-based, Morexella catarrhalis; conditions: Moraxella catarrhalis, ATCC43617, Mueller Hinton Agar, 35° Celsius, 20 hours, read-out: Minimum Inhibitory Concentration (MIC in μg/ml)
Experimental: as §1, §2, §3, §4

E. fecalis MRO 04045 = test: Agar Dilution Method MIC, E. fecalis MRO 04045; format: cell-based; conditions: Enterococcus faecalis, MRO04045, Mueller Hinton Agar, 35° Celsius, 20 hours, read-out: Minimum Inhibitory Concentration (MIC in μg/ml)
Experimental: as §1, §2, §3, §4

SMILES | MIC (E. faecalis ATCC 51299) | MIC (S. epidermidis MRO 02046) | MIC (S. aureus MRO 00048) | MIC (E. faecalis ATCC 29212) | MIC (S. aureus ATCC 43300) | MIC (S. aureus MRO 00055) | MIC (S. aureus MRO 00013) | MIC [1] | MIC [2] | MIC (S. aureus MRO 00003) | MIC (S. aureus MRO 00001) | MIC (S. aureus MRO 00059) | MIC (S. aureus MRO 00030) | MIC (S. aureus ATCC 29213) | MIC [3] | MIC (E. fecalis MRO 04045)
CC(=S)NC[C@H]1CN(c2ccc(N3CCN(C(=S)c4ccsc4)CC3)c(F)c2)C(=O)O1 [Example 1, (S)-N-[3-[3-fluoro-4-[4(thiophen-3-ylthiocarbonyl)piperazin-1-yl]phenyl]-2-oxooxazolidin-5-ylmethyl]thioacetamide] | 0.5 µg/mL (≈ 1.04 µM) | 0.25 µg/mL (≈ 0.522 µM) | 0.25 µg/mL (≈ 0.522 µM) | 0.5 µg/mL (≈ 1.04 µM) | 0.25 µg/mL (≈ 0.522 µM) | 0.5 µg/mL (≈ 1.04 µM) | 0.5 µg/mL (≈ 1.04 µM) | 1 µg/mL (≈ 2.09 µM) | 1 µg/mL (≈ 2.09 µM) | 0.5 µg/mL (≈ 1.04 µM) | 0.25 µg/mL (≈ 0.522 µM) | 0.5 µg/mL (≈ 1.04 µM) | 0.5 µg/mL (≈ 1.04 µM) | 0.25 µg/mL (≈ 0.522 µM) | 1 µg/mL (≈ 2.09 µM) | 0.5 µg/mL (≈ 1.04 µM)
CC(=S)NC[C@H]1CN(c2ccc(N3CCN(C(=S)c4cccs4)CC3)c(F)c2)C(=O)O1 [Example 3, (S)-N-[3-[3-Fluoro-4-[4-(thiophen-2-ylthiocarbonyl)piperazin-1-yl]phenyl]-2-oxooxazolidin-5-ylmethyl]thioacetamide] | 0.25 µg/mL (≈ 0.522 µM) | 0.5 µg/mL (≈ 1.04 µM) | 0.25 µg/mL (≈ 0.522 µM) | 0.5 µg/mL (≈ 1.04 µM) | 0.25 µg/mL (≈ 0.522 µM) | 1 µg/mL (≈ 2.09 µM) | 1 µg/mL (≈ 2.09 µM) | 1 µg/mL (≈ 2.09 µM) | 1 µg/mL (≈ 2.09 µM) | 1 µg/mL (≈ 2.09 µM) | 0.5 µg/mL (≈ 1.04 µM) | 0.25 µg/mL (≈ 0.522 µM) | 0.5 µg/mL (≈ 1.04 µM) | 0.5 µg/mL (≈ 1.04 µM) | 1 µg/mL (≈ 2.09 µM) | 1 µg/mL (≈ 2.09 µM)
CC(=S)NC[C@H]1CN(c2ccc(N3CCN(C(=S)c4ccc([N+](=O)[O-])o4)CC3)c(F)c2)C(=O)O1 [Example 5, (S)-N-[3-[3-Fluoro-4-[4-(5-nitrofuran-2-ylthiocarbonyl)piperazin-1-yl]phenyl]-2-oxooxazolidin-5-ylmethyl]thioacetamide] | 0.5 µg/mL (≈ 0.985 µM) | 0.25 µg/mL (≈ 0.493 µM) | 0.25 µg/mL (≈ 0.493 µM) | 0.5 µg/mL (≈ 0.985 µM) | 0.25 µg/mL (≈ 0.493 µM) | 0.5 µg/mL (≈ 0.985 µM) | 0.5 µg/mL (≈ 0.985 µM) | 0.5 µg/mL (≈ 0.985 µM) | 1 µg/mL (≈ 1.97 µM) | 0.5 µg/mL (≈ 0.985 µM) | 0.5 µg/mL (≈ 0.985 µM) | 0.5 µg/mL (≈ 0.985 µM) | 0.5 µg/mL (≈ 0.985 µM) | 0.5 µg/mL (≈ 0.985 µM) | 0.5 µg/mL (≈ 0.985 µM) | 1 µg/mL (≈ 1.97 µM)
CC(=S)NC[C@H]1CN(c2ccc(N3CCN(C(=S)C4CC4)CC3)c(F)c2)C(=O)O1 [Example 6, (S)-N-[3-[3-Fluoro-4-[4-(cyclopropylthiocarbonyl)piperazin-1-yl]phenyl]-2-oxooxazolidin-5-ylmethyl]thioacetamide] | 0.25 µg/mL (≈ 0.573 µM) | 0.25 µg/mL (≈ 0.573 µM) | 0.25 µg/mL (≈ 0.573 µM) | 0.5 µg/mL (≈ 1.15 µM) | 0.25 µg/mL (≈ 0.573 µM) | 1 µg/mL (≈ 2.29 µM) | 1 µg/mL (≈ 2.29 µM) | 1 µg/mL (≈ 2.29 µM) | 1 µg/mL (≈ 2.29 µM) | 1 µg/mL (≈ 2.29 µM) | 0.25 µg/mL (≈ 0.573 µM) | 0.25 µg/mL (≈ 0.573 µM) | 0.5 µg/mL (≈ 1.15 µM) | 0.5 µg/mL (≈ 1.15 µM) | 1 µg/mL (≈ 2.29 µM) | 1 µg/mL (≈ 2.29 µM)
CC(=S)NC[C@H]1CN(c2ccc(N3CCN(C(=S)c4ccc(C)s4)CC3)c(F)c2)C(=O)O1 [Example 7, (S)-N-[3-[3-Fluoro-4-[4-(5-methylthiophen-2-ylthiocarbonyl)piperazin-1-yl]phenyl]-2-oxooxazolidin-5-ylmethyl]thioacetamide] | 0.5 µg/mL (≈ 1.01 µM) | 0.25 µg/mL (≈ 0.507 µM) | 0.5 µg/mL (≈ 1.01 µM) | 0.5 µg/mL (≈ 1.01 µM) | 0.5 µg/mL (≈ 1.01 µM) | 0.5 µg/mL (≈ 1.01 µM) | 1 µg/mL (≈ 2.03 µM) | 2 µg/mL (≈ 4.06 µM) | 2 µg/mL (≈ 4.06 µM) | 0.5 µg/mL (≈ 1.01 µM) | 0.25 µg/mL (≈ 0.507 µM) | 0.5 µg/mL (≈ 1.01 µM) | 0.5 µg/mL (≈ 1.01 µM) | 0.5 µg/mL (≈ 1.01 µM) | 2 µg/mL (≈ 4.06 µM) | 0.5 µg/mL (≈ 1.01 µM)
